Laboratory results reported in PMC4515084 (Chemmedchem, 2015).

Columns and labels:
human CYP 2C9 = human CYP 2C9 (Homo sapiens, UniProt P11712); assay: CYP inhibition assay, pooled human liver microsomes, diclofenac substrate; assay type: in vitro ADME
human CYP 3A4 = human CYP 3A4 (Homo sapiens, UniProt P08684); assay: CYP inhibition assay, pooled human liver microsomes, midazolam substrate; assay type: in vitro ADME
Solubility = assay type: physicochemical
[1] = tested on: PPE-induced acute lung injury in mice; assay: PPE-induced acute lung injury; assay type: in vivo, mouse; details: PPE noxa
[2] = Pharmacokinetic studies in rats
[3] = biological target: porcine pancreatic elastase (PPE) (Sus scrofa, UniProt P00772); assay: Serine protease selectivity: PPE; assay type: biochemical; details: listed as BAY 85-8501
[4] = tested on: HNE-induced acute lung injury in mice; assay: HNE-induced acute lung injury; assay type: in vivo, mouse; details: administered 1 h prior to the HNE noxa

Chain of human CYP 3A4 (P08684 whole entry): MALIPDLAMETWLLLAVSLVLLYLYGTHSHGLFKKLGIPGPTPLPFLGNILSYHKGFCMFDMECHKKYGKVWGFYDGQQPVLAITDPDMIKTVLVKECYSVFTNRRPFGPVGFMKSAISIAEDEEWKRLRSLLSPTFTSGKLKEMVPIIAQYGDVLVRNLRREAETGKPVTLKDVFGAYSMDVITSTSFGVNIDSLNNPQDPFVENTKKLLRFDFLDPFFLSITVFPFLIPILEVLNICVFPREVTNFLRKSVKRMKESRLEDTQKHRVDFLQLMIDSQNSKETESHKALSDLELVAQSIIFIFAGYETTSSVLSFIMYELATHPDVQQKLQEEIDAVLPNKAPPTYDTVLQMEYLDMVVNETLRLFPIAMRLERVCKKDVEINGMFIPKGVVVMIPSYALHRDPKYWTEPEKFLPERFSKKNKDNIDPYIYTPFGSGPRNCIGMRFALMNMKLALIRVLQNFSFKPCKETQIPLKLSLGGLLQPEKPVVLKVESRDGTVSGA
Chain of porcine pancreatic elastase (PPE) (P00772 27-266): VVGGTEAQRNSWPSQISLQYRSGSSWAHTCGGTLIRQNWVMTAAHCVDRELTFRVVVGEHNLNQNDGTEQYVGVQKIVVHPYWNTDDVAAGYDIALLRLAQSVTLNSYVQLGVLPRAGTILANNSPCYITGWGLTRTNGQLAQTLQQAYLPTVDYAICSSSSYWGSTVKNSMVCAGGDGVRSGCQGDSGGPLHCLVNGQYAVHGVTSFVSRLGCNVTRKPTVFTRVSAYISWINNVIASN
Chain of human CYP 2C9 (P11712 whole entry): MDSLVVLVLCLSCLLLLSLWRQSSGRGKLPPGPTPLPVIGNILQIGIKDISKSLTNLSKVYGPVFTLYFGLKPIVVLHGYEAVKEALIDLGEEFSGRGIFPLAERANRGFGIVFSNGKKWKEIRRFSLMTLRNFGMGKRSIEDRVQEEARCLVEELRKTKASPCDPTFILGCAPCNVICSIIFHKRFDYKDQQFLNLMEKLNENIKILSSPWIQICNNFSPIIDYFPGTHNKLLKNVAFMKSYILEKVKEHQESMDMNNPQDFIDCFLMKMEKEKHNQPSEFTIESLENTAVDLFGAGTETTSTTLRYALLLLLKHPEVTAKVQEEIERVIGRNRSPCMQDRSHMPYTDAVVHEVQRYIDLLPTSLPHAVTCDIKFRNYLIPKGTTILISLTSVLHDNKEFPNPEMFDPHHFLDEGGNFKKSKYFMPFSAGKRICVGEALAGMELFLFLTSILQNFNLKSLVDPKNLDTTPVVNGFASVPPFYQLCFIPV

## CC1=C(C#N)[C@@H](c2ccc(C#N)cc2S(C)(=N)=O)N(C)C(=O)N1c1cccc(C(F)(F)F)c1 (stereo partly shown) [Compound 30]
Human CYP 2C9
  IC50: > 50 µM
Human CYP 3A4
  IC50: > 50 µM
Solubility
  solubility: improved solubility

## CC1=C(C#N)[C@@H](c2ccc(C#N)cc2)N(CC(N)=O)C(=O)N1c1cccc(C(F)(F)F)c1 [Compound 23]
Human CYP 2C9; up to a concentration of 50 μM
  inhibition toward CYP 2C9: no observable inhibition
Human CYP 3A4; up to a concentration of 50 μM
  inhibition toward CYP 3A4: no observable inhibition

## CC1=C(C#N)[C@@H](c2ccc(C#N)cc2S(C)(=O)=O)N(C)C(=O)N1c1cccc(C(F)(F)F)c1 [Compound 29, (4S)-4-[4-Cyano-2-(methylsulfonyl)phenyl]-3,6-dimethyl-2-oxo-1-[3-(trifluoromethyl)phenyl]-1,2,3,4-tetrahydropyrimidine-5-carbonitrile]
[1]
  primary lung injury: could not prevent
[2]; rat, in vivo, iv, 0.3 mg kg^−1
  clearance: 8.33 mL/min/kg
[3]
  effect on PPE: no inhibitory effect
[4]
  development of lung injury and subsequent inflammation: completely prevented

## CC(=O)C1=C(C)N(c2cccc(C(F)(F)F)c2)C(=O)N[C@@H]1c1ccc(C#N)nc1 [Compound 20]
[2]; rat, in vivo, iv, 0.3 mg kg^−1
  clearance: 33.3 mL/min/kg
[2]; rodents / rats
  clearance: medium clearance

## CC1=C(C(=O)OCCO)[C@@H](c2ccc(C#N)cc2)NC(=O)N1c1cccc(C(F)(F)F)c1 [Compound 17]
[2]; rat, in vivo, iv, 0.3 mg kg^−1
  clearance: 35 mL/min/kg
[2]; rodents / rats
  clearance: medium clearance
